This passage reports Infarct volume results from patent publication US9687490B2, “Triazine derivatives for the treatment of conditions associated with nicotinamide adenine dinucleotide phosphate oxidase” (GLUCOX BIOTECH AB, priority 2012, dated 2017).

The subject of the experiment is stroke induced mice. The experiment is described as follows: Stroke animal model: transient middle cerebral artery occlusion (tMCAO), infarct size by TTC staining. In kind it is in vivo. The note with it: individual animals, 3.2 mg/kg i.p. at 2 h and 12 h, 1 h occlusion, 23 h reperfusion, C57Bl6 mice. The method, then:
Mice (10-12 wk), wild type C57BI6, 6 animals, were used:
Test (n=3) stroke induced mouse treated i.p. with inventive compound M4 (N^2-(3,4-dimethylphenyl)-6-((4-(3-methoxyphenyl)piperazin-1-yl)methyl)-1,3,5-triazine-2,4-diamine).
M4 preparation for intra peritoneal i.p. administration: 3.5 mg of M4 were first dissolved in 1 ml of DMSO. After the substance was totally dissolved, 5 ml of 20% Cremophor ELP in PBS (phosphate buffered saline solution) was added. Thereafter an additional 4 ml of PBS was added. The 20% Cremophor ELP solution was prepared by dissolving 10.5 g of Cremophor in 50 ml of PBS.
Injection volume of M4: The dose was 3.2 mg/kg, calculated for each animal at each event of administration (2 h and 12 h).
• 1. Transient middle cerebral artery occlusion (tMCAO) by blocking with a filament for 1 h. • 2. Reperfusion after 1 h by removing filament • 3. Injection of M4 by i.p. after 2 h and repeated injection i.p. after 12 h • 4. Sacrifice the animal after 24 h and infarct size is determined by triphenyl tetrazolium chloride (TTC) staining—Thus the procedure of middle cerebral artery occlusion (MCAO); 1 h occlusion and 23 h reperfusion. • 5. […]
Mice were killed 24 hours after tMCAO. […] The occurrence of Intra Cerebral Hemorrhage (ICH) was macroscopically assessed on whole brains and again after the 2-mm-thick coronal brain slices were cut (see above) before TTC staining. […]

Where “and” joins values, the source holds several entries; their conditions need not be identical. Identical values can stand only once.

`COc1cccc(N2CCN(Cc3nc(N)nc(Nc4ccc(C)c(C)c4)n3)CC2)c1` [M4, N^2-(3,4-dimethylphenyl)-6-((4-(3-methoxyphenyl)piperazin-1-yl)methyl)-1,3,5-triazine-2,4-diamine]: the Infarct volume is 73 mm^3 and 145 mm^3 and 134 mm^3.
